Data reported in ChEMBL document CHEMBL5154741, “Antibacterial alkylguanidino ureas: Molecular simplification approach, searching for membrane-based MoA” (Eur J Med Chem, 2022).
Values after ≈ are worked out from the molar mass of the structure shown. Active and inactive are the calls of the source. The rule behind the calls is not given here.

Columns and labels:
Lipid bilayer [1] = experiment: Binding affinity to bacterial membrane mimic POPG large unilamellar vesicle assessed as hyperchromic shift at 125 uM measured after 1 hr by UV-Vis spectrophotometric analysis
Bacillus subtilis = experiment: Antibacterial activity against Bacillus subtilis ATCC 6633 assessed as bacterial growth inhibition incubated for 18 hrs by CLSI based micro-dilution broth method; format: functional
Enterococcus faecalis = experiment: Antibacterial activity against Enterococcus faecalis ATCC 19433 assessed as bacterial growth inhibition incubated for 18 hrs by micro-dilution broth method; format: functional
Streptococcus pyogenes = experiment: Antibacterial activity against Streptococcus pyogenes ATCC 12344 assessed as bacterial growth inhibition incubated for 18 hrs by micro-dilution broth method; format: functional
Staphylococcus aureus = experiment: Antibacterial activity against Staphylococcus aureus ATCC 25923 assessed as bacterial growth inhibition incubated for 18 hrs by micro-dilution broth method; format: functional
Escherichia coli = experiment: Antibacterial activity against Escherichia coli CCUG assessed as bacterial growth inhibition incubated for 18 hrs by micro-dilution broth method; format: functional
Klebsiella pneumoniae [2] = experiment: Antibacterial activity against Klebsiella pneumoniae ATCC 13833 assessed as bacterial growth inhibition incubated for 18 hrs by micro-dilution broth method; format: functional
Acinetobacter baumannii [3] = experiment: Antibacterial activity against Acinetobacter baumannii ATCC 17978 assessed as bacterial growth inhibition incubated for 18 hrs by micro-dilution broth method; format: functional
Pseudomonas aeruginosa = experiment: Antibacterial activity against Pseudomonas aeruginosa ATCC 27853 assessed as bacterial growth inhibition incubated for 18 hrs by micro-dilution broth method; format: functional
Lipid bilayer [4] = experiment: Binding affinity to bacterial membrane mimic POPG large unilamellar vesicle assessed as bathochromic shift at 125 uM measured at t = 0 by UV-Vis spectrophotometric analysis
Enterobacter cloacae = experiment: Antibacterial activity against Enterobacter cloacae VA-417/02 assessed as bacterial growth inhibition incubated for 18 hrs by CLSI based micro-dilution broth method; format: functional
Klebsiella pneumoniae [5] = experiment: Antibacterial activity against pan drug-resistant Klebsiella pneumoniae S1-081Rb assessed as bacterial growth inhibition incubated for 18 hrs by CLSI based micro-dilution broth method; format: functional
Acinetobacter baumannii [6] = experiment: Antibacterial activity against Acinetobacter baumannii AC-54/97 assessed as bacterial growth inhibition incubated for 18 hrs by CLSI based micro-dilution broth method; format: functional

Compound	Activity (Lipid bilayer [1])	MIC (Bacillus subtilis)	MIC (Enterococcus faecalis)	MIC (Streptococcus pyogenes)	MIC (Staphylococcus aureus)	MIC (Escherichia coli)	MIC (Klebsiella pneumoniae [2])	MIC (Acinetobacter baumannii [3])	MIC (Pseudomonas aeruginosa)	Activity (Lipid bilayer [4])	MBC (Enterobacter cloacae)	MIC (Enterobacter cloacae)	MBC (Klebsiella pneumoniae [5])	MIC (Klebsiella pneumoniae [5])	MBC (Acinetobacter baumannii [6])	MIC (Acinetobacter baumannii [6])
N=C(NCCCCCCCCNC(=O)N(CCCCCCCCNC(=N)NCC1CC1)CCCCCCCCNC(=N)NCC1CC1)NCC1CC1.O=C(O)C(F)(F)F	Active	1 µg/mL	8 µg/mL	1 µg/mL	4 µg/mL	8 µg/mL	8 µg/mL	64 µg/mL	64 µg/mL	Active						
CCCCCCCCN(CCCCCCCC)C(=O)N(CCCCCCCC)CCCCCCCCNC(=N)NCC1CC1.O=C(O)C(F)(F)F		64 µg/mL	128 µg/mL	16 µg/mL	> 128 µg/mL	> 128 µg/mL	> 128 µg/mL	> 128 µg/mL	> 128 µg/mL							
CN[C@H](CC(C)C)C(=O)N[C@H]1C(=O)N[C@@H](CC(N)=O)C(=O)N[C@H]2C(=O)N[C@H]3C(=O)N[C@H](C(=O)N[C@H](C(=O)O)c4cc(O)cc(O)c4-c4cc3ccc4O)[C@H](O)c3ccc(c(Cl)c3)Oc3cc2cc(c3O[C@@H]2O[C@H](CO)[C@@H](O)[C@H](O)[C@H]2O[C@H]2C[C@](C)(N)[C@H](O)[C@H](C)O2)Oc2ccc(cc2Cl)[C@H]1O [VANCOMYCIN]		0.5 µg/mL (≈ 0.345 µM)	1 µg/mL (≈ 0.69 µM)	1 µg/mL (≈ 0.69 µM)												
CCCCCCCCN(CCCCCCCC)C(=O)N(CCCCCCCC)CCCCCCCC		> 128 µg/mL	> 128 µg/mL	> 128 µg/mL	> 128 µg/mL	> 128 µg/mL	> 128 µg/mL	> 128 µg/mL	> 128 µg/mL							
NCCCCCCCCN(CCCCCCCCN)C(=O)N(CCCCCCCCN)CCCCCCCCN		4 µg/mL (≈ 7.03 µM)	16 µg/mL (≈ 28.1 µM)	4 µg/mL (≈ 7.03 µM)	8 µg/mL (≈ 14.1 µM)	32 µg/mL (≈ 56.2 µM)	16 µg/mL (≈ 28.1 µM)	16 µg/mL (≈ 28.1 µM)	32 µg/mL (≈ 56.2 µM)							
COLISTIN						0.5 µg/mL	0.5 µg/mL	1 µg/mL	0.5 µg/mL							
N=C(NCCCCCCCCN(CCCCCCCCNC(=N)NCC1CC1)C(N)=O)NCC1CC1.O=C(O)C(F)(F)F		8 µg/mL	16 µg/mL	2 µg/mL	16 µg/mL	32 µg/mL	32 µg/mL	128 µg/mL	128 µg/mL							
CNC(=O)NCCCCCCCCNC(=N)NCC1CC1.O=C(O)C(F)(F)F		64 µg/mL	64 µg/mL	128 µg/mL	32 µg/mL	128 µg/mL	128 µg/mL	> 128 µg/mL	> 128 µg/mL							
CCCCCCCCN(CCCCCCCC)C(=O)N(CCCCCCCCNC(=N)NCC1CC1)CCCCCCCCNC(=N)NCC1CC1.O=C(O)C(F)(F)F		128 µg/mL	128 µg/mL	4 µg/mL	> 128 µg/mL	128 µg/mL	64 µg/mL	128 µg/mL	> 128 µg/mL							
CCCCCCCCCC(=O)N[C@@H](Cc1c[nH]c2ccccc12)C(=O)N[C@H](CC(N)=O)C(=O)N[C@@H](CC(=O)O)C(=O)N[C@@H]1C(=O)NCC(=O)N[C@@H](CCCN)C(=O)N[C@@H](CC(=O)O)C(=O)N[C@H](C)C(=O)N[C@@H](CC(=O)O)C(=O)NCC(=O)N[C@H](CO)C(=O)N[C@@H]([C@H](C)CC(=O)O)C(=O)N[C@@H](CC(=O)c2ccccc2N)C(=O)O[C@@H]1C		1 µg/mL (≈ 0.617 µM)	1 µg/mL (≈ 0.617 µM)	0.5 µg/mL (≈ 0.309 µM)	0.12 µg/mL (≈ 0.074 µM)											
N=C(N)NCCCCCCN(CCCCCCN)C(=O)N(CCCCCCN)CCCCCCNC(=N)N		32 µg/mL (≈ 59.2 µM)	> 128 µg/mL	128 µg/mL (≈ 237 µM)	128 µg/mL (≈ 237 µM)	> 128 µg/mL	> 128 µg/mL	> 128 µg/mL	> 128 µg/mL							
CCCCCCCCN(CCCCCCCCNC(=N)NCC1CC1)C(=O)N(CCCCCCCC)CCCCCCCCNC(=N)NCC1CC1.O=C(O)C(F)(F)F		128 µg/mL	32 µg/mL	8 µg/mL	> 128 µg/mL	> 128 µg/mL	128 µg/mL	> 128 µg/mL	> 128 µg/mL							
N=C(N)NCCCCCCCCN(CCCCCCCCNC(=N)N)C(=O)N(CCCCCCCCNC(=N)N)CCCCCCCCNC(=N)NCC1CC1.O=C(O)C(F)(F)F		2 µg/mL	2 µg/mL	1 µg/mL	2 µg/mL	8 µg/mL	4 µg/mL	8 µg/mL	16 µg/mL		8 µg/mL	8 µg/mL	16 µg/mL	8 µg/mL	16 µg/mL	8 µg/mL

Second part, led by results:

Activity (Lipid bilayer [1])	MIC (Bacillus subtilis)	MIC (Enterococcus faecalis)	MIC (Streptococcus pyogenes)	MIC (Staphylococcus aureus)	MIC (Escherichia coli)	MIC (Klebsiella pneumoniae [2])	MIC (Acinetobacter baumannii [3])	MIC (Pseudomonas aeruginosa)	Activity (Lipid bilayer [4])	Compound	MBC (Enterobacter cloacae)	MIC (Enterobacter cloacae)	MBC (Klebsiella pneumoniae [5])	MIC (Klebsiella pneumoniae [5])	MBC (Acinetobacter baumannii [6])	MIC (Acinetobacter baumannii [6])
Active	4 µg/mL (≈ 6.55 µM)	32 µg/mL (≈ 52.4 µM)	16 µg/mL (≈ 26.2 µM)	2 µg/mL (≈ 3.27 µM)	32 µg/mL (≈ 52.4 µM)	64 µg/mL (≈ 105 µM)	64 µg/mL (≈ 105 µM)	128 µg/mL (≈ 209 µM)	Active	N=C(N)NCCCCCCCCN(CCCCCCCCN)C(=O)N(CCCCCCCCN)CCCCCCCCN						
	1 µg/mL (≈ 1.32 µM)	2 µg/mL (≈ 2.64 µM)	1 µg/mL (≈ 1.32 µM)	2 µg/mL (≈ 2.64 µM)	4 µg/mL (≈ 5.28 µM)	8 µg/mL (≈ 10.6 µM)	32 µg/mL (≈ 42.2 µM)	64 µg/mL (≈ 84.4 µM)		CCCCCCN(CCCCCCNC(=N)NCC1CC1)C(=O)N(CCCCCCCCNC(=N)NCC1CC1)CCCCCCNC(=N)NCC1CC1						
	0.5 µg/mL (≈ 0.766 µM)	8 µg/mL (≈ 12.2 µM)	0.25 µg/mL (≈ 0.383 µM)	0.5 µg/mL (≈ 0.766 µM)	2 µg/mL (≈ 3.06 µM)	16 µg/mL (≈ 24.5 µM)	16 µg/mL (≈ 24.5 µM)	32 µg/mL (≈ 49 µM)		N=C(N)NCCCCCCCCN(CCCCCCCCNC(=N)N)C(=O)N(CCCCCCCCN)CCCCCCCCN						
	> 128 µg/mL	64 µg/mL (≈ 126 µM)	8 µg/mL (≈ 15.8 µM)	128 µg/mL (≈ 253 µM)	64 µg/mL (≈ 126 µM)	> 128 µg/mL		> 128 µg/mL		N=C(NCCCCCCCCNC(=O)NCCCCCCCCNC(=N)NCC1CC1)NCC1CC1						
	32 µg/mL (≈ 61.4 µM)	64 µg/mL (≈ 123 µM)	8 µg/mL (≈ 15.4 µM)	128 µg/mL (≈ 246 µM)	128 µg/mL (≈ 246 µM)	128 µg/mL (≈ 246 µM)	> 128 µg/mL	> 128 µg/mL		CNC(=O)N(CCCCCCCCNC(=N)NCC1CC1)CCCCCCCCNC(=N)NCC1CC1						
Active	2 µg/mL (≈ 2.37 µM)	2 µg/mL (≈ 2.37 µM)	1 µg/mL (≈ 1.19 µM)	16 µg/mL (≈ 19 µM)	4 µg/mL (≈ 4.75 µM)	4 µg/mL (≈ 4.75 µM)	4 µg/mL (≈ 4.75 µM)	8 µg/mL (≈ 9.5 µM)	Active	CCCCCCCCN(CCCCCCCCNC(=N)NCC1CC1)C(=O)N(CCCCCCCCNC(=N)NCC1CC1)CCCCCCCCNC(=N)NCC1CC1						
	2 µg/mL (≈ 2.46 µM)	2 µg/mL (≈ 2.46 µM)	1 µg/mL (≈ 1.23 µM)	1 µg/mL (≈ 1.23 µM)	2 µg/mL (≈ 2.46 µM)	2 µg/mL (≈ 2.46 µM)	4 µg/mL (≈ 4.91 µM)	8 µg/mL (≈ 9.82 µM)		CCCCCCCCN(CCCCCCNC(=N)NCC1CC1)C(=O)N(CCCCCCCCNC(=N)NCC1CC1)CCCCCCCCNC(=N)NCC1CC1						
	2 µg/mL (≈ 2.46 µM)	1 µg/mL (≈ 1.23 µM)	1 µg/mL (≈ 1.23 µM)	2 µg/mL (≈ 2.46 µM)	4 µg/mL (≈ 4.91 µM)	8 µg/mL (≈ 9.82 µM)	8 µg/mL (≈ 9.82 µM)	16 µg/mL (≈ 19.6 µM)		CCCCCCN(CCCCCCCCNC(=N)NCC1CC1)C(=O)N(CCCCCCCCNC(=N)NCC1CC1)CCCCCCCCNC(=N)NCC1CC1						
